The text below walks through data of ChEMBL document CHEMBL4118084, “Chemical Approaches to Intervening in Ubiquitin Specific Protease 7 (USP7) Function for Oncology and Immune Oncology Therapies” (J Med Chem, 2018).

Experiment [1] concerns the target T1, Ubiquitin carboxyl-terminal hydrolase 7 (Homo sapiens, UniProt Q93009). Put plainly: Inhibition of full-length recombinant USP7 (unknown origin) expressed in Sf9 cells using Ub-EKL as substrate preincubated for 30 mins followed by substrate addition by fluorescence based assay.
The target in experiment [2] is Ubiquitin carboxyl-terminal hydrolase 7 (Homo sapiens, UniProt Q93009, C223A). Kind of experiment: Inhibition of human full-length wild-type His-tagged catalytic USP7 […] expressed in baculovirus infected Sf9 cells using Ub-AMC as substrate preincubated for 30 mins followed by substrate addition measured after 1 hrs by fluorometric analysis.
Sequence of Ubiquitin carboxyl-terminal hydrolase 7 (Homo sapiens, UniProt Q93009, C223A) (Q93009 whole entry C223A): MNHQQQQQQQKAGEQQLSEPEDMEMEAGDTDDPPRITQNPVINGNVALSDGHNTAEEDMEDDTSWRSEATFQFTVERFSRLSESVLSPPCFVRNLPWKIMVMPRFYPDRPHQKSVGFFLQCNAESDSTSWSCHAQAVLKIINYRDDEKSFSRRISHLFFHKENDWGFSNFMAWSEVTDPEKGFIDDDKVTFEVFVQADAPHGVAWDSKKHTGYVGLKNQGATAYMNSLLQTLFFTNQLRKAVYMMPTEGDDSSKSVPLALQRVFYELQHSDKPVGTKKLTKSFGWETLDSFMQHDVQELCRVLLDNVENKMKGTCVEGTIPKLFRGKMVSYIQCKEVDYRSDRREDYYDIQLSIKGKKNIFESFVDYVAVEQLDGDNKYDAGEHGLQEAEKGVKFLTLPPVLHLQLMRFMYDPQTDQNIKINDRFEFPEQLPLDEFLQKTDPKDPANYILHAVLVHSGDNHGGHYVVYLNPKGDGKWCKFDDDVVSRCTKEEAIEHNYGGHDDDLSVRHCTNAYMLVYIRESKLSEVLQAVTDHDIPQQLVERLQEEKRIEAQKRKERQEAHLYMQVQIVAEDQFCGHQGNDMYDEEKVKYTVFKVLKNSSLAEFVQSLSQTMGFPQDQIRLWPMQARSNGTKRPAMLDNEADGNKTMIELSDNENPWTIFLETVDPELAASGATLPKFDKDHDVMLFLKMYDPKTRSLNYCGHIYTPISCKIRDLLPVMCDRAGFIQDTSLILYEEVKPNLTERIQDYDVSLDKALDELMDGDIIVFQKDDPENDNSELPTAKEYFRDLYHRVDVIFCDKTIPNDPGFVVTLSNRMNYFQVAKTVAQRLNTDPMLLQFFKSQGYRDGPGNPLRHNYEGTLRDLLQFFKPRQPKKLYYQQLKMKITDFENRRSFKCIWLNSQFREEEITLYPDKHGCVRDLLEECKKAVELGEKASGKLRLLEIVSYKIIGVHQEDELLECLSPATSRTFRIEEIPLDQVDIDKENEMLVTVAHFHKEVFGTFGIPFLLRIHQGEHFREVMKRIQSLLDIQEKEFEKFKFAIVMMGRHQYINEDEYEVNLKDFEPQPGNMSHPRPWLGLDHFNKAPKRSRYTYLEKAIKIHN
For experiment [3], the target named is T1, Ubiquitin carboxyl-terminal hydrolase 7. Kind of experiment: Inhibition of USP7 (unknown origin) using human N-terminal GST-tagged UBA52 as substrate preincubated for 10 mins followed by substrate addition measured after 45 mins by coomassie brilliant blue staining-based SDS-PAGE analysis.
Experiment [4] shares this target. Kind of experiment: Inhibition of USP7 (unknown origin) using Ub-Rh110 as substrate by fluorescence based assay.
The target is the same in experiment [5]. Kind of experiment: Inhibition of USP7 (unknown origin).
The target is the same in experiment [6]. Kind of experiment: Inhibition of human recombinant 6His-tagged USP7 using Ub-Rh110 as substrate preincubated for 30 mins followed by substrate addition measured after 180 mins by fluorometric analysis.
Experiment [7] in a line: Inhibition of mouse CD4+/CD25+ Treg cells-mediated suppression of CD3-stimulated T-effector cell proliferation after 72 hrs by CellTrace violet dye-based assay. It is filed as functional.
In experiment [8] the target is T1, Ubiquitin carboxyl-terminal hydrolase 7. Put plainly: Inhibition of full-length native C-terminal USP7 (unknown origin) using Ub-Rho110 as substrate after 1 hr by fluorescence assay.
Experiment [9] shares this target. Put plainly: Inhibition of USP7 in human SJSA cells assessed as increase in ubiquitinated MDM2 level after 20 hrs in presence of MG132 by MSD assay. It is filed as cell-based.
Experiment [10] deals with T2, Ubiquitin carboxyl-terminal hydrolase 2 (Homo sapiens, UniProt O75604).
T2 sequence (O75604 whole entry): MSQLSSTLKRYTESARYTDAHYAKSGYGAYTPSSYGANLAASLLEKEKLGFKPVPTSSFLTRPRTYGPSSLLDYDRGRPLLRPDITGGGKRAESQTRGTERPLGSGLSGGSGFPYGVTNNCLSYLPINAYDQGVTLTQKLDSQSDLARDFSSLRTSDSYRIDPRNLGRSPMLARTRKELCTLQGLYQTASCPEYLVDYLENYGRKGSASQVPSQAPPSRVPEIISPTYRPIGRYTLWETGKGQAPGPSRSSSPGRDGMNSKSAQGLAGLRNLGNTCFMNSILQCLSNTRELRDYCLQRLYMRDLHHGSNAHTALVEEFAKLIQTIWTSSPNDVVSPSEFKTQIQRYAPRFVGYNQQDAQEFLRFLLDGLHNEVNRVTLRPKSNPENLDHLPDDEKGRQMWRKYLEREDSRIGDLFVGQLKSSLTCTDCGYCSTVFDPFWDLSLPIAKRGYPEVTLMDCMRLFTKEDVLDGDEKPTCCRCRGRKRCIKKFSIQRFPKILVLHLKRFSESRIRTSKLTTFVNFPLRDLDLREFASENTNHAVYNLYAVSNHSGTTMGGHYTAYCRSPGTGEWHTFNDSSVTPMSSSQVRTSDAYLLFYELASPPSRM
Put plainly: Inhibition of USP2 (unknown origin).

For experiment [11], the target named is T1, Ubiquitin carboxyl-terminal hydrolase 7. Put plainly: Inhibition of full-length USP7 (unknown origin) using Ub-AMC as substrate preincubated for 20 mins followed by substrate addition measured after 50 mins.
The target in experiment [12] is T3, Ubiquitin carboxyl-terminal hydrolase 47 (Homo sapiens, UniProt Q96K76).
T3 sequence (Q96K76 whole entry): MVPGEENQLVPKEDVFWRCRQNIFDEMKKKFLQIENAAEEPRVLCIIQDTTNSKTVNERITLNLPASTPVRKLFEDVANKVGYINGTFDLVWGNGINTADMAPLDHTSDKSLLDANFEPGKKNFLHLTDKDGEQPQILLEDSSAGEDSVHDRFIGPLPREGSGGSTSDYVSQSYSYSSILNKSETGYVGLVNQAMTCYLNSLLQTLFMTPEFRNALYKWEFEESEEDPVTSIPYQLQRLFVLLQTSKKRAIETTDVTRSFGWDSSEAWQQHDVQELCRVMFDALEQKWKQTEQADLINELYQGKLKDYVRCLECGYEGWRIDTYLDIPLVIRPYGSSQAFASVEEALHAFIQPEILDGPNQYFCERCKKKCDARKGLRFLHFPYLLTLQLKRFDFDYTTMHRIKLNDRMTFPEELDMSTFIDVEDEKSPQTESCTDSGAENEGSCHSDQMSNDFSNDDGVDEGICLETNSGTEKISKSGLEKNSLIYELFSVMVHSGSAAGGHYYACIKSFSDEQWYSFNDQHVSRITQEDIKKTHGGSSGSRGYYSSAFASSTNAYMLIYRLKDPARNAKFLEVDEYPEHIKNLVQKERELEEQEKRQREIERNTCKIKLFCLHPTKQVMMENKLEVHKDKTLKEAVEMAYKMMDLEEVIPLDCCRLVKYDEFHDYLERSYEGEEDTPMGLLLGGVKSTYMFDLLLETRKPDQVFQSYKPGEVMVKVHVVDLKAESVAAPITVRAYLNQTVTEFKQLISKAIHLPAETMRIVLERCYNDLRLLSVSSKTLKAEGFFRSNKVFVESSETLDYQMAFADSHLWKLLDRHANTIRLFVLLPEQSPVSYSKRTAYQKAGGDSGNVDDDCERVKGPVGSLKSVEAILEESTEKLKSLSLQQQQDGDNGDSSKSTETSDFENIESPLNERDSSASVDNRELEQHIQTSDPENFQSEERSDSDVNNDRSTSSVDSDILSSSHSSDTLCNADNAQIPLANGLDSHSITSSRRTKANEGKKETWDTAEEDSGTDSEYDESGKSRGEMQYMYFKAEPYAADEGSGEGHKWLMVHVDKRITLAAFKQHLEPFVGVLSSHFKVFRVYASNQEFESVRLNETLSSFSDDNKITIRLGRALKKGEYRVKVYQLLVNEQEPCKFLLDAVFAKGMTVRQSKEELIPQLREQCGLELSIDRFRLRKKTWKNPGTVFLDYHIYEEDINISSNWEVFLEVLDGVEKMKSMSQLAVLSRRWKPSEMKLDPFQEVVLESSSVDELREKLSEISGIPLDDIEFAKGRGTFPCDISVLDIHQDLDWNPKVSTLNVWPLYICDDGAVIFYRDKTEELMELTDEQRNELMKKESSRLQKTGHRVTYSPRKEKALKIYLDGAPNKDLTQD
Put plainly: Inhibition of USP47 (unknown origin) using Ub-AMC as substrate preincubated for 20 mins followed by substrate addition measured after 50 mins.

T1 sequence (Q93009 whole entry): as the sequence (Q93009 whole entry C223A) above, with A223C counted along it

On to `CC(=O)c1cc([N+](=O)[O-])c(Sc2ccccc2)s1`, for which the IC50 in [1] was more than 50 µM.

For the compound `CN(CCCNC(=O)c1ccc2nc3c(c(Cl)c2c1)CCCC3)Cc1ccccc1`, the IC50 in experiment [2] was 28 µM.

`COC(=O)[C@]12CCC(C)(C)C[C@H]1[C@H]1C(=O)C=C3[C@@]4(C)CC(C#N)C(=O)C(C)(C)[C@@H]4CC[C@@]3(C)[C@]1(C)CC2` (some centres undefined): the IC50 in experiment [3] came out at 25 µM.

As to `CC(CC(=O)N1CCC(O)(C(C)n2cnc3c(cnn3C)c2=O)CC1)c1ccccc1` (centres undefined), the IC50 in experiment [4] is 0.2 to 1 µM.

`CC1=CS(=O)(=O)c2cc(NC(=O)c3cc([N+](=O)[O-])c(Sc4c(Cl)cncc4Cl)s3)ccc21` registered an IC50 in [5] of 0.17 µM.

`O=C(Nc1ccc2c(c1)S(=O)(=O)CC2)c1cc([N+](=O)[O-])c(Sc2c(Cl)cncc2Cl)s1` registered an IC50 in experiment [5] of 0.13 µM.

Turning to `C[C@@]12CCCc3coc(c31)C(=O)c1cc3c(=O)c4c(c(=O)c3cc12)c1c(=O)c2cc3c(cc2c(=O)c1c1c(=O)c2cc5c(cc2c(=O)c41)[C@]1(C)CCCc2coc(c21)C5=O)[C@]1(C)CCCc2coc(c21)C3=O`, in experiment [6], the IC50 is 0.75 µM.

As to `COC(=O)/C=C/CNC(=O)c1cc([N+](=O)[O-])c(Sc2cccc(Cl)c2Cl)s1`, in experiment [7], the midpoint of inhibition, the IC50, lay at 0.58 µM.

Compound `CCCc1cc2c(=O)n(C(C)C3(O)CCN(C(=O)CC(C)c4ccccc4)CC3)cnc2s1` (centres undefined) gave an IC50 in [4] of 0.3 to 1 µM.

`O=C(Nc1cccc(CN2CCCC2)c1)c1ccc2nc3c(c(Cl)c2c1)CCCC3` registered an IC50 in [5] of 8.2 µM.

In the case of `CC1CS(=O)(=O)c2cc(NC(=O)c3cc([N+](=O)[O-])c(Sc4c(Cl)cncc4Cl)s3)ccc21` (centres undefined), in experiment [5], the IC50 was 0.075 µM.

In experiment [5], `CC(=O)c1cnc(Sc2c(Cl)cncc2Cl)s1` returned an IC50 of 22.6 µM.

Consider `CC(CC(=O)N1CCC(O)(C(C)n2cnn3cccc3c2=O)CC1)c1ccccc1` (centres undefined), for which the IC50 in [4] was 0.2 to 1 µM.

Take `CC(CC(=O)N1CCC(O)(C(C)n2cnc3cc[nH]c3c2=O)CC1)c1ccccc1` (centres undefined): in [4], the half-inhibitory concentration (IC50) is less than 0.5 µM.

On to `C[C@@]12CCCc3coc(c31)C(=O)c1cc3c(cc12)C(=O)C=C(C1=CC(=O)c2cc4c(cc2C1=O)C(=O)c1occ2c1[C@@]4(C)CCC2)C3=O`, for which the IC50 in experiment [6] was determined as 0.49 µM.

As to `CCc1c(-c2ccc3c(cnn3C)c2)cnc(N)c1-c1ccc(O)cc1`, the IC50 in experiment [8] was more than 63.3 µM; in [9], 2 µM.

Regarding `CN(C)CCCNC1CS(=O)(=O)c2cc(NC(=O)c3cc([N+](=O)[O-])c(Sc4c(Cl)cncc4Cl)s3)ccc21` (centres undefined), in experiment [5], the IC50 was 0.2 µM.

As to `CC(=O)Nc1ccc2c(=O)n(C(C)C3(O)CCN(C(=O)CC(C)c4ccccc4)CC3)cnc2c1` (centres undefined), the IC50 in [4] was less than 0.2 µM.

Regarding `O=C(Nc1ccc2c(c1)S(=O)(=O)C=C2)c1cc([N+](=O)[O-])c(Sc2c(Cl)cncc2Cl)s1`, the IC50 in experiment [5] is 0.1 µM.

In experiment [10], `COC(=O)[C@]12CCC(C)(C)C[C@H]1[C@H]1C(=O)C=C3[C@@]4(C)C=C(C#N)C(=O)C(C)(C)[C@@H]4CC[C@@]3(C)[C@]1(C)CC2` [BARDOXOLONE METHYL] showed an IC50 of 22 µM.

As to `C[C@H]1[C@H](C)CC[C@]2(C(=O)O)CC[C@]3(C)C(=CC[C@@H]4[C@@]5(C)CC[C@H](O)C(C)(C)[C@@H]5CC[C@]43C)[C@H]12` [URSOLIC ACID], the results for the IC50 in experiment [11] and in [12] were 7 µM and 26 µM, respectively.

Take `C[C@@]12CCCc3coc(c31)C(=O)c1cc3c(cc12)C(=O)C=CC3=O` [XESTOQUINONE]: the IC50 in experiment [6] stood at 0.13 µM.

The term IC50 denotes the point on the concentration scale where inhibition reaches its midpoint.
